Data from patent publication US20070105865A1, “Substituted bicyclic quinazolin-4-ylamine derivatives” (Neurogen Corporation, priority 2003, published 2007).
Structures can show the parent of a compound that is named as a salt.

These molecules were tested against T1, human capsaicin receptor (Homo sapiens, UniProt Q8NER1) (assay: Calcium mobilization assay (Example 6)). Details: determined as described in Example 6; cells expressing human capsaicin receptor, capsaicin response.
T1 construct: transfected with the pBK-CMV expression construct encoding the full length human capsaicin receptor using standard methods; expressed in transfected cells
Type: cell-based
Procedure: Human embryonic kidney (HEK293) cells were transfected with the pBK-CMV expression construct encoding the full length human capsaicin receptor using standard methods. The transfected cells were selected for two weeks in media containing G418 (400 μg/ml) to obtain a pool of stably transfected cells. Independent clones were isolated from this pool by limiting dilution to obtain clonal stable cell lines for use in subsequent experiments.
This Example illustrates a representative calcium mobilization assay for use in monitoring the response of cells expressing capsaicin receptor to capsaicin and other vanilloid ligands of the capsaicin receptor, as well as for evaluating test compounds for agonist and antagonist activity.
Cells transfected with expression plasmids (as described in Example 4) and thereby expressing human capsaicin receptor are seeded and grown to 70-90% confluency in FALCON black-walled, clear-bottomed 96-well plates (#3904, BECTON-DICKINSON, Franklin Lakes, N.J.). The culture medium is emptied from the 96 well plates and FLUO-3 AM calcium sensitive dye (Molecular Probes, Eugene, Oreg.) is added to each well (dye solution: 1 mg FLUO-3 AM, 440 μL DMSO and 440 μl 20% pluronic acid in DMSO, diluted 1:250 in Krebs-Ringer HEPES (KRH) buffer (25 mM HEPES, 5 mM KCl, 0.96 mM NaH2PO4, 1 mM MgSO4, 2 mM CaCl2, 5 mM glucose, 1 mM probenecid, pH 7.4), 50 μl diluted solution per well). Plates are covered with aluminum foil and incubated at 37° C. for 1-2 hours in an environment containing 5% CO2. After the incubation, the dye is emptied from the plates, and the cells are washed once with KRH buffer, and resuspended in KRH buffer.
Agonist (e.g., olvanil, capsaicin or RTX)-induced calcium mobilization is monitored using either FLUOROSKAN ASCENT (Labsystems, Franklin, Mass.) or FLIPR (fluorometric imaging plate reader system, Molecular Devices, Sunnyvale, Calif.) instruments. Varying concentrations of the antagonists ruthenium red or capsazepine (RBI; Natick, Mass.) are added to cells concurrently with agonist (e.g., 25-50 nM capsaicin). For agonist-induced calcium responses, data obtained between 30 and 60 seconds after agonist application are used to generate the IC50 values. KALEIDAGRAPH software (Synergy Software, Reading, Pa.) is used to fit the data to the equation: y=a*(1/(1+(b/x)^c)) to determine the IC50 for the response. In this equation, y is the maximum fluorescence signal, x is the concentration of the agonist or antagonist, a is the Emax, b corresponds to the IC50 value and c is the Hill coefficient.
To measure the ability of a test compound to antagonize (inhibit) the response of cells expressing capsaicin receptors to capsaicin or other vanilloid agonist, the IC50 of capsaicin is first determined. An additional 20 μl of KRH buffer and 1 μl DMSO is added to each well of cells, prepared as described above. 100 μl capsaicin in KRH buffer is automatically transferred by the FLIPR instrument to each well. An 8-point concentration response curve, with final capsaicin concentrations of 1 nM to 3 μM, is used to determine capsaicin IC50.
Test compounds are dissolved in DMSO, diluted in 20 μl KRH buffer so that the final concentration of test compounds in the assay well is between 1 μM and 5 μM, and added to cells prepared as described above. The 96 well plates containing prepared cells and test compounds are incubated in the dark, at room temperature for 0.5 to 6 hours. It is important that the incubation not continue beyond 6 hours. Just prior to determining the fluorescence response, 100 μl capsaicin in KRH buffer at twice the IC50 concentration determined from the concentration response curve is automatically added by the FLIPR instrument to each well of the 96 well plate for a final sample volume of 200 μl and a final capsaicin concentration equal to the IC50. The final concentration of test compounds in the assay wells is between 1 μM and 5 μM. […]

T1 sequence (Q8NER1 whole entry): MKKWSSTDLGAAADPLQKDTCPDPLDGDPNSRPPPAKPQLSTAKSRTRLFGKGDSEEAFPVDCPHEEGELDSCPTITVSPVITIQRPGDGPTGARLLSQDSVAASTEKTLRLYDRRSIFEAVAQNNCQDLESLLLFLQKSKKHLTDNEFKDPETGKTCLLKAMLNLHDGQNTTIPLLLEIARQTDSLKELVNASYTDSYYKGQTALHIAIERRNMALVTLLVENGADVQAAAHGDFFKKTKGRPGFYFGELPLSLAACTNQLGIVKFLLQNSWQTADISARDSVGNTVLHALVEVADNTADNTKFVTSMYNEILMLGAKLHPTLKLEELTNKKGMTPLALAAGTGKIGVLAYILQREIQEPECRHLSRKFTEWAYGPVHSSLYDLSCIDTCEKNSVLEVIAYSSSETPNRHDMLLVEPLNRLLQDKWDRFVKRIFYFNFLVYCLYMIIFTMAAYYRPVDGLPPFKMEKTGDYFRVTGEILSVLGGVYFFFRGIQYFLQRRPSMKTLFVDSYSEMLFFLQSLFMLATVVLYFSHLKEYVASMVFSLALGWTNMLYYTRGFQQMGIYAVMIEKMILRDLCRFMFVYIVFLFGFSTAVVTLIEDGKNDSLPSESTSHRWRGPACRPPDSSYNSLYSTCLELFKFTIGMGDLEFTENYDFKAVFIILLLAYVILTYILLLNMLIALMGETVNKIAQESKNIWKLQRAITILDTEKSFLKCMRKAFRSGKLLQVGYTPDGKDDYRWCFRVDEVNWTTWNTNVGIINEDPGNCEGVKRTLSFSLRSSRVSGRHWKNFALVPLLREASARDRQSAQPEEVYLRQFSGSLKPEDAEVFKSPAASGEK

Row | SMILES | IC50 [nM]
1 | CC(C)COCc1nc(Nc2ccc3c(c2)NCCC3(C)C)c2ccc(-c3ncccc3C(F)(F)F)nc2n1 [Compound 4, (4,4-Dimethyl-1,2,3,4-tetrahydro-quinolin-7-yl)-[2-isobutoxymethyl-7-(3-trifluoromethyl-pyridin-2-yl)pyrido[2,3-d]pyrimidin-4-yl]-amine hydrochloride] | < 1000
2 | CCOCc1nc(Nc2ccc3c(c2)N(C)CCO3)c2ccc(-c3ncccc3Cl)nc2n1 [Compound 6] | < 1000
3 | CCOCc1nc(Nc2ccc3c(c2)N(C(C)=O)CC3(C)C)c2ccc(-c3ncccc3C)nc2n1 [Compound 7, 1-{6-[2-Ethoxymethyl-7-(3-methyl-pyridin-2-yl)-pyrido[2,3-d]pyrimidin-4-ylamino]-3,3-dimethyl-2,3-dihydro-indol-1-yl}-ethanone] | < 1000
4 | CC(C)COCc1nc(Nc2ccc3c(c2)N(C)CC3(C)C)c2ccc(-c3ncccc3Cl)nc2n1 [Compound 8, [7-(3-Chloro-pyridin-2-yl)-2-isobutoxymethyl-pyrido[2,3-d]pyrimidin-4-yl]-(1,3,3-trimethyl-2,3-dihydro-1H-indol-6-yl)-amine] | < 1000
5 | CN1Cc2cc(Nc3ncnc4cc(-c5ncccc5Cl)cnc34)ccc2C(C)(C)C1 [Compound 9, [7-(3-Chloro-pyridin-2-yl)-pyrido[3,2-d]pyrimidin-4-yl]-(2,4,4-trimethyl-1,2,3,4-tetrahydro-isoquinolin-7-yl)-amine hydrochloride] | < 1000
6 | COCc1cc(Nc2ccc3c(c2)NCCC3(C)C)c2ccc(-c3ncccc3C(F)(F)F)nc2n1 [Compound 10] | < 1000

Second part, the molecule after the results:

Row | IC50 [nM] | SMILES
7 | < 1000 | COCc1nc(Nc2ccc3c(c2)N(C)CCC3)c2ccc(-c3ncccc3Cl)nc2n1 [Compound 1, [7-(3-Chloro-pyridin-2-yl)-2-methoxymethyl-pyrido[2,3-d]pyrimidin-4-yl]-(1-methyl-1,2,3,4-tetrahydro-quinolin-7-yl)-amine]
8 | < 1000 | CN1Cc2cc(Nc3ncnc4cc(-c5ncccc5C(F)(F)F)ccc34)ccc2C(C)(C)C1 [Compound 3, [7-(3-Trifluoromethyl-pyridin-2-yl)-quinazolin-4-yl]-(2,4,4-trimethyl-1,2,3,4-tetrahydro-isoquinolin-7-yl)-amine hydrochloride]
9 | < 1000 | COCc1nc(Nc2ccc3c(c2)NCCC3)c2ccc(-c3ncccc3C(F)(F)F)nc2n1 [Compound 5, [2-Methoxymethyl-7-(3-trifluorometyl-pyridin-2-yl)-pyrido[2,3-d]pyrimidin-4-yl]-(1,2,3,4-tetrahydro-quinolin-7-yl)-amine]
